# Results published in publication PMC10817170, “Effect of an NHE3 inhibitor in combination with an NPT2b inhibitor on gastrointestinal phosphate absorption in Rodent models” (PLOS ONE, 2024).
# “And” between values parts separate entries of the source, which are not always exact repeats. Identical values can stand only once.
# How the values were obtained:
# [1] = test system: T1, NHE3; assay: Sodium and phosphate excretion in urine after oral NaH2PO4 bolus in rats; format: in vivo; details: 4 h urine; for Phosphorus-to-Creatinine / Sodium-to-Creatinine / Total Urinary Phosphorus / Total Urinary Sodium / Urinary-to-Dietary Phosphate / Urinary-to-Dietary Sodium / Urine Volume: NaH2PO4 bolus
# T1 construct: from tissue; host or cells: intestine of living SD rats
# Procedure: To assess sodium and phosphate absorption in rats, we took advantage of the increase in urinary sodium and phosphate excretion following an oral bolus of sodium phosphate. Thus, an LY3304000 dependent decrease in urinary sodium and phosphate excretion following an oral bolus dose of sodium phosphate is an indirect measurement of the ability of LY3304000 to inhibit sodium and phosphate absorption in intestine. A dosing solution of 3 mg/kg LY3304000 for a 10 mL/kg dose volume was formulated in 1% HEC. The subsequent dosing solutions of 1, 0.3, 0.1, 0.03, 0.01, 0.003, and 0.001 mg/kg LY3304000 were prepared by serial dilutions with 1% HEC. An NaH2PO4 dosing solution at 690 mg/kg with a 20 mL/kg dosing volume was made in sterile water. Male SD rats were fasted for 4 hours with access to water and then orally dosed at 10 mL/kg with 1% HEC vehicle or varying dose of LY3304000 at 0.001, 0.003, 0.01, 0.03, 0.1, 0.3, 1, and 3 mg/kg. In this and subsequent studies where phosphate absorption is measured, a 4 hour fast was used which is less disruptive to the animal’s normal physiology than the 12 hours fast used to measure acute phosphate uptake into plasma. Fifteen minutes later, rats were dosed with either sterile water or NaH2PO4 solution, and then immediately transferred to metabolic cages. Urine samples were collected from the metabolic cages at 4 hours post sterile water or NaH2PO4 dose. The net urine volume was recorded. Urinary sodium, creatinine, and phosphorus (as a measure of phosphate) were determined using a clinical biochemistry analyzer. The urinary sodium-to-creatinine and phosphorus-to-creatinine ratios were calculated and compared between vehicle and LY3304000 treated groups. The ratios of urinary-to-dietary phosphate (measured as phosphorus) and urinary-to-dietary sodium in urine were compared between vehicle and LY3304000 treated groups.
# [2] = biological target: T2, Human SGLT1 (Homo sapiens, UniProt P13866); assay: SGLT1 activity assay (14C-alpha-methyl-D-glucopyranoside uptake in CHO cells); format: cell-based; details: geometric mean, n=4
# T2 construct: expressed in transfected cells; host or cells: CHO cells, constitutive expression
# T2 sequence (P13866 1-664): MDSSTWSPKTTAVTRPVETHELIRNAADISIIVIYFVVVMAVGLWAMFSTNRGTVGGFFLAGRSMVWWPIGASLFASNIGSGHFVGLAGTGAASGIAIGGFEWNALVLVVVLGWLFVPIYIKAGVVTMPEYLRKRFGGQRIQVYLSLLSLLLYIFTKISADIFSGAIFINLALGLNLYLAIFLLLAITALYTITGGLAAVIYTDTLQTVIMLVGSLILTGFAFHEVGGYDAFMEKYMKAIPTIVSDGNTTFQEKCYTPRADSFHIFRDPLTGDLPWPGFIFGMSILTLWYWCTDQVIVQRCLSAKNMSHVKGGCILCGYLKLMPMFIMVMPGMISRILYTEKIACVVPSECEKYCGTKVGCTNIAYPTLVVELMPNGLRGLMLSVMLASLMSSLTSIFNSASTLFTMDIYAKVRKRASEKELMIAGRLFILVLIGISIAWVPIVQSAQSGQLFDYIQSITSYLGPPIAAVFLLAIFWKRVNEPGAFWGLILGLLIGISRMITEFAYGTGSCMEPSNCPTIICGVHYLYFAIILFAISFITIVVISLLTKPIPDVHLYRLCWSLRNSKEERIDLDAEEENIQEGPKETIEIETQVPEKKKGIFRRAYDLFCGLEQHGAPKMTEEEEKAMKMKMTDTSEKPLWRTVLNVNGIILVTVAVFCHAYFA
# Procedure: Generation of constitutive human Pit-2 and SGLT1 overexpressing CHO cells and activity assays measuring the uptake of ^33P phosphate for 45 minutes at 20°C for Pit-2 and ^14C-α-methyl-D-glucopyranoside for 120 minutes at 37°C for SGLT1, were also described previously.
smiles,measurement,setting,value
"CN1Cc2c(Cl)cc(Cl)cc2[C@H](c2cccc(S(=O)(=O)NCCOCCOCCN/C(=N\C(N)=O)NCCCCN/C(=N/C(N)=O)NCCOCCOCCNS(=O)(=O)c3cccc([C@@H]4CN(C)Cc5c(Cl)cc(Cl)cc54)c3)c2)C1.Cl.Cl [LY3304000, (Z)-[[4-[[(Z)-N’-carbamoyl-N-[2-[2-[2-[[3-[(4S)-6,8-dichloro-2-methyl-3,4-dihydro-1H-isoquinolin-4-yl]phenyl]sulfonylamino]ethoxy]ethoxy]ethyl]carbamimidoyl]amino]butylamino]-[2-[2-[2-[[3-[(4S)-6,8-dichloro-2-methyl-3,4-dihydro-1H-isoquinolin-4-yl]phenyl]sulfonylamino]ethoxy]ethoxy]ethylamino]methylene]urea dihydrochloride]",Phosphorus-to-Creatinine,[1]; 0.001 mg/kg po,14 mg/mg
same,Sodium-to-Creatinine,[1]; 0.001 mg/kg po,10 mg/mg
same,Total Urinary Phosphorus,[1]; 0.001 mg/kg po,12501 µg
same,Total Urinary Sodium,[1]; 0.001 mg/kg po,9084 µg
same,Urinary-to-Dietary Phosphate,[1]; 0.001 mg/kg po,0.337
same,Urinary-to-Dietary Sodium,[1]; 0.001 mg/kg po,0.326
same,Urine Volume,[1]; 0.001 mg/kg po,4 mL
same,Phosphorus-to-Creatinine,[1]; 0.003 mg/kg po,14.1 mg/mg
same,Sodium-to-Creatinine,[1]; 0.003 mg/kg po,12.2 mg/mg
same,Total Urinary Phosphorus,[1]; 0.003 mg/kg po,12997 µg
same,Total Urinary Sodium,[1]; 0.003 mg/kg po,11429 µg
same,Urinary-to-Dietary Phosphate,[1]; 0.003 mg/kg po,0.350
same,Urinary-to-Dietary Sodium,[1]; 0.003 mg/kg po,0.413
same,Urine Volume,[1]; 0.003 mg/kg po,4.6 mL
same,Phosphorus-to-Creatinine,[1]; 0.01 mg/kg po,15 mg/mg
same,Sodium-to-Creatinine,[1]; 0.01 mg/kg po,9.8 mg/mg
same,Total Urinary Phosphorus,[1]; 0.01 mg/kg po,12066 µg
same,Total Urinary Sodium,[1]; 0.01 mg/kg po,8104 µg
same,Urinary-to-Dietary Phosphate,[1]; 0.01 mg/kg po,0.320
same,Urinary-to-Dietary Sodium,[1]; 0.01 mg/kg po,0.290
same,Urine Volume,[1]; 0.01 mg/kg po,3.8 mL
same,Phosphorus-to-Creatinine,[1]; 0.03 mg/kg po,13 mg/mg
same,Sodium-to-Creatinine,[1]; 0.03 mg/kg po,9.8 mg/mg
same,Total Urinary Phosphorus,[1]; 0.03 mg/kg po,9961 µg
same,Total Urinary Sodium,[1]; 0.03 mg/kg po,7637 µg
same,Urinary-to-Dietary Phosphate,[1]; 0.03 mg/kg po,0.268
same,Urinary-to-Dietary Sodium,[1]; 0.03 mg/kg po,0.276
same,Urine Volume,[1]; 0.03 mg/kg po,2.7 mL
same,Phosphorus-to-Creatinine,[1]; 0.1 mg/kg po,12.3 mg/mg
same,Sodium-to-Creatinine,[1]; 0.1 mg/kg po,5.3 mg/mg
same,Total Urinary Phosphorus,[1]; 0.1 mg/kg po,7247 µg
same,Total Urinary Sodium,[1]; 0.1 mg/kg po,2850 µg
same,Urinary-to-Dietary Phosphate,[1]; 0.1 mg/kg po,0.197
same,Urinary-to-Dietary Sodium,[1]; 0.1 mg/kg po,0.105
same,Urine Volume,[1]; 0.1 mg/kg po,1.7 mL
same,Phosphorus-to-Creatinine,[1]; 0.3 mg/kg po,12 mg/mg
same,Sodium-to-Creatinine,[1]; 0.3 mg/kg po,2.4 mg/mg
same,Total Urinary Phosphorus,[1]; 0.3 mg/kg po,6250 µg
same,Total Urinary Sodium,[1]; 0.3 mg/kg po,1095 µg
same,Urinary-to-Dietary Phosphate,[1]; 0.3 mg/kg po,0.168
same,Urinary-to-Dietary Sodium,[1]; 0.3 mg/kg po,0.039
same,Urine Volume,[1]; 0.3 mg/kg po,1 mL
same,Phosphorus-to-Creatinine,[1]; 1 mg/kg po,11.3 mg/mg
same,Sodium-to-Creatinine,[1]; 1 mg/kg po,2.4 mg/mg
same,Total Urinary Phosphorus,[1]; 1 mg/kg po,7081 µg
same,Total Urinary Sodium,[1]; 1 mg/kg po,1400 µg
same,Urinary-to-Dietary Phosphate,[1]; 1 mg/kg po,0.191
same,Urinary-to-Dietary Sodium,[1]; 1 mg/kg po,0.051
same,Urine Volume,[1]; 1 mg/kg po,1.4 mL
same,Phosphorus-to-Creatinine,[1]; 3 mg/kg po,9.5 mg/mg
same,Total Urinary Phosphorus,[1]; 3 mg/kg po,5346 µg
same,Total Urinary Sodium,[1]; 3 mg/kg po,612 µg
same,Urinary-to-Dietary Phosphate,[1]; 3 mg/kg po,0.144
same,Urinary-to-Dietary Sodium,[1]; 3 mg/kg po,0.022
same,Urine Volume,[1]; 3 mg/kg po,1 mL
same,Sodium-to-Creatinine,"[1]; 3 mg/kg po, 3 mg/kg",1.0 ± 0.4 mg/mg and 1 mg/mg
same,"ED50, urinary phosphorus excretion",[1]; urinary-to-dietary phosphorus,0.041 mg/kg
same,"ED50, urinary sodium excretion",[1]; urinary-to-dietary sodium,0.058 mg/kg
same,IC50,[2],6.6 µM
